The structures appear in SMILES notation.

The term IC50 denotes the concentration that inhibits the measured activity by half.
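Throughout, for IC50: neurons cultured at least 8 to 10 days atop an astrocyte layer in 96-well plates, calcium entry read as the change in Fura2 fluorescence ratio at 340/380 nm excitation.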

The subject of one assay is AMPA receptor.
Assay: not given
Particulars: primary culture of rat embryo cerebral cortex nerve cells; Fura2-AM; 2 μM AMPA; 1 μM MK-801.
`N#Cc1ccccc1-c1cc(-c2ccccn2)cn(-c2cccc([N+](=O)[O-])c2)c1=O` [Example 8, 3-(2-Cyanophenyl)-5-(2-pyridyl)-1-(3-nitrophenyl)-1,2-dihydropyridin-2-one] showed an IC50 of 0.1 µM.

Compound `CS(=O)(=O)Nc1cccc(-n2cc(-c3ccccn3)cc(-c3ccccc3C#N)c2=O)c1` [Example 10, 3-(2-Cyanophenyl)-5-(2-pyridyl)-1-(3-methylsulfonylaminophenyl)-1,2-dihydropyridin-2-one] had an IC50 of 0.05 µM.

For `CNc1cccc(-n2cc(-c3ccccn3)cc(-c3ccccc3C#N)c2=O)c1` [Example 11, 3-(2-Cyanophenyl)-5-(2-pyridyl)-1-(3-methylaminophenyl)-1,2-dihydropyridin-2-one], the IC50 turned out to be 0.06 µM.

On to `COC(=O)c1cccc(-n2cc(-c3ccccn3)cc(-c3ccccc3C#N)c2=O)c1` [Example 14, 3-(2-Cyanophenyl)-5-(2-pyridyl)-1-(3-methoxycarbonylphenyl)-1,2-dihydropyridin-2-one], for which half-maximal inhibition (IC50) was put at 0.1 µM.

`CNC(=O)c1cccc(-n2cc(-c3ccccn3)cc(-c3ccccc3C#N)c2=O)c1` [Example 15, 3-(2-Cyanophenyl)-5-(2-pyridyl)-1-(3-methylaminocarbonylphenyl)-1,2-dihydropyridin-2-one]: the IC50 was determined as 0.05 µM.

`N#Cc1ccccc1-c1cc(-c2ccccn2)cn(-c2cccc(C=O)c2)c1=O` [Example 20, 3-(2-Cyanophenyl)-5-(2-pyridyl)-1-(3-formylphenyl)-1,2-dihydropyridin-2-one] came in with an IC50 of 0.04 µM.

Take `N#Cc1ccccc1-c1cc(-c2ccccn2)cn(-c2cccc(CO)c2)c1=O` [Example 21, 3-(2-Cyanophenyl)-5-(2-pyridyl)-1-(3-hydroxymethylphenyl)-1,2-dihydropyridin-2-one]: half-maximal inhibition (IC50) was put at 0.03 µM.

`N#CCc1cccc(-n2cc(-c3ccccn3)cc(-c3ccccc3C#N)c2=O)c1` [Example 22, 3-(2-Cyanophenyl)-5-(2-pyridyl)-1-(3-cyanomethylphenyl)-1,2-dihydropyridin-2-one] showed an IC50 of 0.06 µM.

As for `CSc1ccc(-n2cc(-c3ccccn3)cc(-c3ccccc3C#N)c2=O)cc1` [Example 26, 3-(2-Cyanophenyl)-5-(2-pyridyl)-1(4-methylthiophenyl)-1,2-dihydropyridin-2-one], the IC50 came out at 0.02 µM.

For `CS(=O)(=O)c1ccc(-n2cc(-c3ccccn3)cc(-c3ccccc3C#N)c2=O)cc1` [Example 27, 3-(2-Cyanophenyl)-5-(2-pyridyl)-1-(4-methylsulfonylphenyl)-1,2-dihydropyridin-2-one], half-maximal inhibition (IC50) required 0.05 µM.

`N#Cc1ccccc1-c1cc(-c2ccccn2)c(=O)n(-c2ccccc2)c1` [Example 33, 3-(2-Pyridyl)-5-(2-cyanophenyl)-1-phenyl-1,2-dihydropyridin-2-one] registered an IC50 of 0.7 µM.

`COc1ccc(-c2cc(-c3ccccn3)cn(-c3ccccc3)c2=O)cn1` [Example 77, 3-(2-Methoxy-5-pyridyl)-5-(2-pyridyl)-1-phenyl-1,2-dihydropyridin-2-one] returned an IC50 of 0.02 µM.

Compound `N#Cc1cccnc1-c1cc(-c2ccccc2)cn(-c2cccnc2)c1=O` [Example 79, 3-(3-Cyano-2-pyridyl)-5-phenyl-1-(3-pyridyl)-1,2-dihydropyridin-2-one] registered an IC50 of 2.6 µM.

In the case of `COc1ccc(-n2cc(-c3ccccn3)cc(-c3cccnc3F)c2=O)cn1` [Example 86, 3-(2-Fluoro-3-pyridyl)-5-(2-pyridyl)-1-(2-methoxy-5-pyridyl)-1,2-dihydropyridin-2-one], the IC50 came to 1.9 µM.

`N#Cc1ccccc1-c1cc(-c2ccccn2)cn(-c2cccc(F)c2)c1=O` [Example 92, 3-(2-Cyanophenyl)-5-(2-pyridyl)-1-(3-fluorophenyl)-1,2-dihydropyridin-2-one]: the concentration for half-maximal inhibition (IC50) came out at 0.05 µM.

Compound `COc1cccc(-n2cc(-c3ccccn3)cc(-c3ccccc3C#N)c2=O)c1` [Example 96, 3-(2-Cyanophenyl)-5-(2-pyridyl)-1-(3-methoxyphenyl)-1,2-dihydropyridin-2-one] yielded an IC50 of 0.06 µM.

Consider `N#Cc1ccccc1-c1cc(-c2ccccn2)cn(-c2cccc(Cl)c2)c1=O` [Example 102, 3-(2-Cyanophenyl)-5-(2-pyridyl)-1-(3-chlorophenyl)-1,2-dihydropyridin-2-one], for which 0.02 µM corresponded to half-maximal inhibition (IC50).

`Cc1cccc(-n2cc(-c3ccccn3)cc(-c3ccccc3C#N)c2=O)c1` [Example 103, 3-(2-Cyanophenyl)-5-(2-pyridyl)-1-(3-tolyl)-1,2-dihydropyridin-2-one]: the IC50 turned out to be 0.03 µM.

Regarding `N#Cc1ccccc1-c1cc(-c2ccccn2)cn(-c2ccsc2)c1=O` [Example 105, 3-(2-Cyanophenyl)-5-(2-pyridyl)-1-(thiophen-3-yl)-1,2-dihydropyridin-2-one], inhibition was half-maximal at 0.03 µM (IC50).

On to `N#Cc1ccccc1-c1cc(-c2ccccn2)cn(-c2ccoc2)c1=O` [Example 106, 3-(2-Cyanophenyl)-5-(2-pyridyl)-1-(3-furyl)-1,2-dihydropyridin-2-one], for which the IC50 turned out to be 0.07 µM.

`Cc1ccc(-n2cc(-c3ccccn3)cc(-c3ccccc3C#N)c2=O)cc1` [Example 107, 3-(2-Cyanophenyl)-5-(2-pyridyl)-1-(4-tolyl)-1,2-dihydropyridin-2-one] showed an IC50 of 0.07 µM.

Turning to `N#Cc1ccccc1-c1cc(-c2ccccn2)cn(-c2ccc(C(F)(F)F)cc2)c1=O` [Example 108, 3-(2-Cyanophenyl)-5-(2-pyridyl)-1-(4-trifluoromethylphenyl)-1,2-dihydropyridin-2-one], the IC50 was 0.03 µM.

For the compound `COc1ccc(-n2cc(-c3ccccn3)cc(-c3ccccc3C#N)c2=O)cn1` [Example 109, 3-(2-Cyanophenyl)-5-(2-pyridyl)-1-(2-methoxypyridin-5-yl)-1,2-dihydropyridin-2-one], the 50% inhibitory concentration (IC50) came to 0.01 µM.

`COc1cncc(-n2cc(-c3ccccn3)cc(-c3ccccc3C#N)c2=O)c1` [Example 118, 3-(2-Cyanophenyl)-5-(2-pyridyl)-1-(3-methoxypyridin-5-yl)-1,2-dihydropyridin-2-one] yielded an IC50 of 0.1 µM.

Turning to `O=c1c(-c2ccc(Cl)cc2Cl)cc(-c2ccccn2)cn1-c1cccnc1` [Example 131, 3-(2,4-Dichlorophenyl)-5-(2-pyridyl)-1-(3-pyridyl)-1,2-dihydropyridin-2-one], inhibition was half-maximal at 37 µM (IC50).

Take `N#Cc1ccccc1-c1cc(-c2ccccn2)cn(-c2cccc(O)c2)c1=O` [Example 315, 3-(2-Cyanophenyl)-1-(3-hydroxyphenyl)-5-(2-pyridyl)-1,2-dihydropyridin-2-one]: the IC50 is 0.08 µM.

Consider `O=c1c(C2C3CC4CC(C3)CC2C4)cc(-c2ccccn2)cn1-c1ccccc1` (centres unmarked) [Example 387, 3-(2-Adamantyl)-5-(2-pyridyl)-1-phenyl-1,2-dihydropyridin-2-one], for which inhibition was half-maximal at 7 µM (IC50).

As to `CC1=NN=C(c2ccc(N)cc2)c2cc3c(cc2C1)OCO3` [GYKI 52466, reference compound], the IC50 is 9.02 µM.

The assay is the same for the next values; noted with them: suppression of AMPA-induced calcium influx into nerve cells; Table 2.
With `COc1ccc(-c2cc(-c3ccccc3C#N)c(=O)n(-c3ccccc3)c2)cn1` [Example 200, 3-(2-Cyanophenyl)-5-(2-methoxypyridin-5-yl)-phenyl-1,2-dihydropyridin-2-one], the IC50 worked out at 2 µM.

For the compound `N#Cc1ccccc1-c1cc(-c2ccccn2)cn(-c2ccc(N)cc2)c1=O` [Example 215, 1-(4-Aminophenyl)-3-(2-cyanophenyl)-5-(2-pyridyl)-1,2-dihydropyridin-2-one], the IC50 was determined as 0.1 µM.

With `N#Cc1ccccc1-c1cc(-c2ccccn2)cn(-c2cccc(OCCCN3CCCCC3)c2)c1=O` [Example 244, 3-(2-Cyanophenyl)-1-(3-piperidinopropoxyphenyl)-5-(2-pyridyl)-1,2-dihydropyridin-2-one], the IC50 came to 1.8 µM.

As for `O=c1c(-c2cccnc2F)cc(-c2ncccn2)cn1-c1cccnc1` [Example 263, 3-(2-Fluoropyridin-3-yl)-1-(3-pyridyl)-5-(2-pyrimidinyl)-1,2-dihydropyridin-2-one], the IC50 is 1 µM.

Take `O=c1c(-c2cccc3ccccc23)cc(-c2ccccn2)cn1-c1cccnc1` [Example 279, 3-(1-Naphthyl)-5-(2-pyridyl)-1-(3-pyridyl)-1,2-dihydropyridin-2-one]: the IC50 was 3.71 µM.

With `O=c1c(-c2cc3ccccc3n2S(=O)(=O)c2ccccc2)cc(-c2ccccn2)cn1-c1ccccc1` [Example 293, 3-(1-Benzenesulfonylindol-2-yl)-1-phenyl-5-(2-pyridyl)-1,2-dihydropyridin-2-one], the IC50 was 3.3 µM.

The test system of another assay is male mice of ddy strain. In words: Anticonvulsant action induced by AMPA (Test Example 2). The following applies: 25 mg/kg orally, AMPA 2 nmole/5 μl/minute/mouse into lateral ventricle 30 minutes or 1 hour after dosing. The class given is in vivo. As to the method: A test compound was suspended in a 0.5% methyl cellulose solution or in sesame oil and was orally administered (25 mg/kg) to male mice of ddy strain. After 30 minutes or 1 hour from the oral administration, AMPA was continuously injected (2 nmole/5 μl/minute/mouse) into lateral ventricle to induce the convulsions. The effect was judged by a time-extending action until the convulsion takes place by a continuous injection of AMPA.
On to `O=c1c(-c2cccnc2Cl)cc(-c2ccccn2)cn1-c1ccccc1` [Example 4, 3-(2-Chloro-3-pyridyl)-5-(2-pyridyl)-1-phenyl-1,2-dihydropyridin-2-one], for which the “Anticonvulsant action (time-extending action until convulsion by continuous AMPA injection)” value (“Anticonvulsant action” below) is reported as “significant anticonvulsant action”.

As to `N#Cc1ccccc1-c1cc(-c2ccccc2)cn(-c2cccnc2)c1=O` [Example 47, 3-(2-Cyanophenyl)-5-phenyl-1-(3-pyridyl)-1,2-dihydropyridin-2-one], the “Anticonvulsant action” value is recorded as “significant anticonvulsant action”.

With `O=c1c(-c2ccccc2Cl)cc(-c2ccccn2)cn1-c1ccccc1` [Example 57, 3-(2-Chlorophenyl)-5-(2-pyridyl)-1-phenyl-1,2-dihydropyridin-2-one], the “Anticonvulsant action” value is given as “significant anticonvulsant action”.

`O=c1c(-c2ccccc2)cc(-c2ccccn2)cn1-c1ccccc1` [Example 61, 3-Phenyl-5-(2-pyridyl)-1-phenyl-1,2-dihydropyridin-2-one]: the “Anticonvulsant action” value was “significant anticonvulsant action”.
